From patent US5278158A, “Oxazinobenzazole compounds” (Yamanouchi Pharmaceutical Co., Ltd., priority 1991, dated 1994)
pIC50: −log10 of the molar value.

How the values were obtained:
[1] = tested on: 3,4-Diaminopyridine Induced Rhythmic Contractions; experiment: Effects on 3,4-Diaminopyridine Induced Rhythmic Contractions (isolated coronary artery rings); design: species or system Mongrel dogs; details: Canis lupus familiaris, isolated dog coronary artery rings, 10 mM 3,4-diaminopyridine; for pIC50: read-out: IC50 (inhibitory effect on the frequency of the rhythmic contractions); for IC100: read-out: IC100 (inhibitory effect on the frequency of the rhythmic contractions)
Protocol: (1) Effects on 3,4-Diaminopyridine Induced Rhythmic Contractions
The experiment was carried out according to the method of Uchida, Sugimoto, et al. (Myakkangaku, 24, 133-143, 1984). Mongrel dogs of either sex were anesthetized with intravenous administration of 30 mg/Kg pentobarbital and were sacrificed by bleeding and then, the heart was excised from each animal. In the Krebs-Henseleit solution, the left circumflex branch or the anterior descending branch was isolated and cut into rings about 2 mm in width. The ring segments were fixed to a stainless-steal hook, and suspended in 37° C. Krebs-Henseleit solution aerated with a mixed gas (95% O2 and 5% CO2) under a tension load of 1.0 g, and isometric contractions were recorded. After the specimen was stabilized for 30 minutes, and rhythmic contractions were induced by treatment with 10 mM 3,4-diamiopyridine. After the amplitude and frequency of rhythmic contractions became substantially steady, a test compound was cumulatively added to the nutritious solution, and the concentration-response curves for the amplitude and frequency of the contractions were constructed and efficacy was evaluated.
[…] (the concentrations required to inhibit the frequency of the rhythmic contractions) of the compounds of this invention are between 0.1 and 10 μM.

blood pressure [2] = experiment: Effects on the Cardiovascular Systems (anesthetized dogs, i.v.); format: in vivo, Mongrel dogs; details: 10 μg/kg i.v.
Protocol: (2) Effects on the Cardiovascular Systems
Mongrel dogs of either sex were anesthetized with intravenous administration of 30 mg/Kg pentobarbital, and after tracheal intubation, the experiments were performed under artificial respiration. After thoracotomy, heart rate, blood pressure, left ventricle pressure, max. dLVP/dt, pulmonary artery pressure, central venous pressure, cardiac output and the coronary artery blood flow were measured. The effects of test compound on these parameters were evaluated by administering it through the cannula indwelt in the femoral vein. The present compounds are effective for lowering blood pressure at a dose of 1 to 1000 μg/kg i.v.

coronary artery = experiment: Coronary Vasodilating Effect (anesthetized dogs, intracoronary); format: in vivo, Mongrel dogs; details: i.a.; action of 300 μg papaverine set as 100%
Protocol: (3) Coronary Vasodilating Effect
Mongrel dogs of either sex were anesthetized with intravenous administration of 30 mg/Kg pentobarbital.
After tracheal intubation, the experiments was conducted under artificial respiration. After thoracotomy, the left circumflex branch was perfused with the autologous blood derived from the carotid artery at a constant pressure through an extracorporeal circuit. Coronary blood flow was measured with an electromagnetic flow probe installed in the extra-corporeal circuit. The test compound was administered directly into the coronary artery through the extra-corporeal circuit and the coronary vasodilating effects were evaluated.
The dilating action was expressed as percentage with the action of 300 μg papaverine being set as 100%, and the dose required to produce a blood flow increase of 100% (ED100pap) was calculated.

blood pressure [3] = experiment: Hypotensive Effect in spontaneously hypertensive rats (oral); format: in vivo, Spontaneously hypertensive rats (SHR) of Okamoto-Aoki strain; details: 300 μg/Kg p.o.; conscious SHR
Protocol: Spontaneously hypertensive rats (SHR) of Okamoto-Aoki strain were anesthetized with pentobarbital, 60 mg/kg i.p. Then, a cannula for blood pressure measurement was indwelt in the left common carotid artery and the other end of the cannula was led out extracorporeally from the posterior neck. After a stabilization period of 4-5 days, blood pressure and heart rate were measured under freely moving condition.
The test compound was suspended in 0.5% methylcellulose solution and the suspension was orally administered in a volume of 5 ml/Kg and the efficacy was evaluated.

Row | pIC50 [1] | Structure (SMILES) | IC100 [1] [µM] | MBP (mean blood pressure-lowering effect) (blood pressure [2]) | ED100PAP (dose required to produce a blood flow increase of 100%) (coronary artery) [µg] | MBP (blood pressure [3])
1 | 6.82 | CC1(C)CN(c2cccc[n+]2[O-])c2cc3nonc3cc2O1 [Example 2, 2-(7,8-dihydro-6,6-dimethyl-6H-[1,4]oxazino[2,3-f][2,1,3]benzoxadiazol-8-yl)pyridine N-oxide] | 0.66 | -33 Δ% | 3.5 | -45 Δ%
2 | 6.77 | CC1(C)CN(c2cccc[n+]2[O-])c2cc3no[n+]([O-])c3cc2O1 [Example 4, 7,8-Dihydro-6,6-dimethyl-8-(2'-pyridyl)-6H-[1,4]oxazino[2,3-f][2,1,3]benzoxadiazole 3,1'-dioxide] | 1.23 | -10 Δ% | – | –
